Test results reported in PubChem BioAssay (NCI).
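Each compound was tested at five concentrations against cells in 96-well plates for 48 hours. TGI: total growth inhibition.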

What was measured:
Test in all cases: growth of human tumour cells (NCI), 48 h
[1] = system: 786-0 renal
[2] = system: A498 renal
[3] = system: A549 NSCLC
[4] = system: ACHN renal
[5] = system: BT-549 breast
[6] = system: CAKI-1 renal
[7] = system: CCRF-CEM leukemia
[8] = system: COLO 205 colon
[9] = system: DU-145 prostate
[10] = system: EKVX NSCLC
[11] = system: HCC-2998 colon
[12] = system: HCT-116 colon
[13] = system: HCT-15 colon
[14] = system: HL-60(TB) leukemia
[15] = system: HOP-62 NSCLC
[16] = system: HS 578T breast
[17] = system: HT29 colon
[18] = system: IGROV1 ovarian
[19] = system: K-562 leukemia
[20] = system: KM12 colon
[21] = system: LOX IMVI melanoma
[22] = system: M14 melanoma
[23] = system: MALME-3M melanoma
[24] = system: MCF7 breast
[25] = system: MDA-MB-435
[26] = system: MDA-N
[27] = system: MOLT-4 leukemia
[28] = system: NCI-H23 lung
[29] = system: NCI-H460 lung
[30] = system: NCI-H522 lung
[31] = system: NCI/ADR-RES ovarian
[32] = system: OVCAR-3 ovarian
[33] = system: OVCAR-4 ovarian
[34] = system: OVCAR-5 ovarian
[35] = system: OVCAR-8 ovarian
[36] = system: PC-3 prostate
[37] = system: RPMI-8226 leukemia
[38] = system: SF-268 CNS
[39] = system: SF-295 CNS
[40] = system: SF-539 CNS
[41] = system: SK-MEL-2 melanoma
[42] = system: SK-MEL-28 melanoma
[43] = system: SK-MEL-5 melanoma
[44] = system: SK-OV-3 ovarian
[45] = system: SNB-19 CNS
[46] = system: SR leukemia
[47] = system: SW-620 colon
[48] = system: U251 CNS
[49] = system: UACC-257 melanoma
[50] = system: UACC-62 melanoma
[51] = system: UO-31 renal

Compound: COC(=O)[C@](NC(=O)OCc1ccccc1)([C@@H](C)Sc1ccc(C)cc1)C(F)(F)F
- TGI [1]: > 100 µM
- TGI [2]: > 100 µM
- TGI [3]: > 100 µM
- TGI [4]: > 100 µM
- TGI [5]: > 100 µM
- TGI [6]: > 100 µM
- TGI [7]: 50.7 µM
- TGI [8]: 38.4 µM
- TGI [9]: > 100 µM
- TGI [10]: > 100 µM
- TGI [11]: > 100 µM
- TGI [12]: > 100 µM
- TGI [13]: > 100 µM
- TGI [14]: 78.3 µM
- TGI [15]: > 100 µM
- TGI [16]: > 100 µM
- TGI [17]: > 100 µM
- TGI [18]: > 100 µM
- TGI [19]: > 100 µM
- TGI [20]: > 100 µM
- TGI [21]: > 100 µM
- TGI [22]: > 100 µM
- TGI [23]: > 100 µM
- TGI [24]: > 100 µM
- TGI [25]: > 100 µM
- TGI [26]: > 100 µM
- TGI [27]: > 100 µM
- TGI [28]: 58.5 µM
- TGI [29]: > 100 µM
- TGI [30]: > 100 µM
- TGI [31]: > 100 µM
- TGI [32]: > 100 µM
- TGI [33]: > 100 µM
- TGI [34]: > 100 µM
- TGI [35]: 60 µM
- TGI [36]: > 100 µM
- TGI [37]: > 100 µM
- TGI [38]: > 100 µM
- TGI [39]: > 100 µM
- TGI [40]: > 100 µM
- TGI [41]: > 100 µM
- TGI [42]: > 100 µM
- TGI [43]: 38.2 µM
- TGI [44]: > 100 µM
- TGI [45]: > 100 µM
- TGI [46]: > 100 µM
- TGI [47]: > 100 µM
- TGI [48]: > 100 µM
- TGI [49]: > 100 µM
- TGI [50]: > 100 µM
- TGI [51]: > 100 µM
